# According to US20080292584A1 (priority 2005, published 2008):
# “And” between values parts separate entries of the source, which are not always exact repeats. Equal values may be shown once.
# Columns and labels:
# CYP2A6 = experiment: Induction/inhibition of CYP2A6 activity in cryopreserved human hepatocytes (coumarin); type: in vitro ADME
# Description: (§1) Hepatocytes from three human donors were obtained from a cryopreserved hepatocyte bank (In Vitro Technologies, Inc., USA). After thawing, viable hepatocytes were transferred to collagen-coated 48-well plates for attachment in plating medium (DMEM stock (Dulbecco's modified Eagle's medium, supplemented with bovine serum albumin, fructose, N-(2-hydroxyethyl)piperazine-N′-(2-ethanesulfonate) (HEPES), and sodium bicarbonate), supplemented with antibiotics, bovine serum, hydrocortisone, insulin and minimum essential medium (MEM) nonessential amino acids). After attachment to the collagen matrix, plating medium was replaced with sandwich medium (plating medium supplemented with VITROGEN) and incubated until use.
# (§2) The supplemented KHB was replaced with 150 μL supplemented KHB containing the appropriate isoform-selective substrate and incubated for 4 hrs prior to termination by adding 150 μL ice-cold methanol, except for the CYP2C8 incubations which were terminated by adding 150 μL acetonitrile.
# (§3) All substrates were dissolved in acetonitrile.
# (§4) Replicate trials and controls were performed. […] Additionally, reference control samples were included to evaluate inducibility of CYP2B6, CYP2C9, and CYP2C19 in the test system.
# (§5) Mean specific activity values with associated p-values≦0.05 were deemed to be statistically significant.
# CYP2C9 = CYP2C9 (Homo sapiens, UniProt P11712); experiment: Inhibition of CYP2C9 activity in pooled human liver microsomes (tolbutamide 150 μM to 4′-methylhydroxytolbutamide); type: in vitro ADME; set-up: host or cells: cryopreserved primary human hepatocytes from three donors
# Description: All other incubations were for 30 minutes.
# Four replicates were performed.
# Two replicates were performed.
# CYP3A4 = CYP3A4 (Homo sapiens, UniProt P08684); experiment: Metabolism of metaxalone by expressed recombinant human CYP3A4 at 5 or 20 pmol (Example 4); settings: for percent turnover / % Turnover Mean / [metaxalone] Mean / % Turnover % / [metaxalone]: 60 min; for % Turnover % / [metaxalone]: single replicates, listed as Metaxalone
# CYP2D6 [1] = target: T1, CYP2D6 (Homo sapiens, UniProt P10635); experiment: Metabolism of metaxalone by expressed recombinant human CYP2D6 at 5 or 20 pmol (Example 4); settings: for percent turnover / % Turnover Mean / [metaxalone] Mean / % Turnover % / [metaxalone]: 60 min; for % Turnover % / [metaxalone]: single replicates, listed as Metaxalone
# Description: For CYP2C9 and CYP2D6, SUPERSOMES singly-expressing different allelic variants of the cytochrome p450 isozyme were commercially available. For each of CYP2C9 and CYP2D6, only the *1 allele was tested in these experiments. […]
# CYP2D6 [2] = target: T1, CYP2D6; experiment: Induction/inhibition of CYP2D6 activity in cryopreserved human hepatocytes (dextromethorphan)
# Description: as §1, §2, §3, §4, §5
# [3] = 0.75 μM metaxalone, 5 pmol CYP450
# [4] = 0.75 μM metaxalone, 20 pmol CYP450
# [5] = 0.75 μM metaxalone, 20 pmol cyp
# [6] = 7.5 μM metaxalone, 5 pmol CYP450
# [7] = 7.5 μM metaxalone, 20 pmol CYP450
# T1 sequence (P10635 whole entry): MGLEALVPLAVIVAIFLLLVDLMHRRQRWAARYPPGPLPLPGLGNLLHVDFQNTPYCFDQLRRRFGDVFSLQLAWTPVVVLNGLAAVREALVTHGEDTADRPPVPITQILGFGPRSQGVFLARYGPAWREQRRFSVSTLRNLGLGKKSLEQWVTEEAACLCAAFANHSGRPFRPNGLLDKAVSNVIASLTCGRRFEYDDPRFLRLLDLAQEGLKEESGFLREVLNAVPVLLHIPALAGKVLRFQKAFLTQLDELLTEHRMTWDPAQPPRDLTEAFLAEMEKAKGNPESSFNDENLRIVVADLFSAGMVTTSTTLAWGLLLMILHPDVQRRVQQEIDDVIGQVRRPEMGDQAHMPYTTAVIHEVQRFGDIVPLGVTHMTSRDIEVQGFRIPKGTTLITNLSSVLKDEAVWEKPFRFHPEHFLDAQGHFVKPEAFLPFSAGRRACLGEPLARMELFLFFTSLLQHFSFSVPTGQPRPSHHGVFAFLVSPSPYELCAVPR
# CYP3A4, sequence (P08684 2-503 limits assumed): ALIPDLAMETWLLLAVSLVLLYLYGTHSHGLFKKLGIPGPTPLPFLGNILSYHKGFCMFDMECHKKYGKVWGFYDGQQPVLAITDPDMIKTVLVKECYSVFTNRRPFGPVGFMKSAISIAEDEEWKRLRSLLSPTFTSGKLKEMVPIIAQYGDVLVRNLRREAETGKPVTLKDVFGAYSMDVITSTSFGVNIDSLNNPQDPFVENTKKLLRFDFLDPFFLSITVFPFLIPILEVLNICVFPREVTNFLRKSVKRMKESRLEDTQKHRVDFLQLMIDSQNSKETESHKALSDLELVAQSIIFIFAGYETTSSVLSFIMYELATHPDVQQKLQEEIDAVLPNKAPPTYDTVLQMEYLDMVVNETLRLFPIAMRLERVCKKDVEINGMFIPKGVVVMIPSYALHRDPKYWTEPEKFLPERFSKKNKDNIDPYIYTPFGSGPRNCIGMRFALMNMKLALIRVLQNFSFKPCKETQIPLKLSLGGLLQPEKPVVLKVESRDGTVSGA
# CYP2C9, sequence (P11712 whole entry): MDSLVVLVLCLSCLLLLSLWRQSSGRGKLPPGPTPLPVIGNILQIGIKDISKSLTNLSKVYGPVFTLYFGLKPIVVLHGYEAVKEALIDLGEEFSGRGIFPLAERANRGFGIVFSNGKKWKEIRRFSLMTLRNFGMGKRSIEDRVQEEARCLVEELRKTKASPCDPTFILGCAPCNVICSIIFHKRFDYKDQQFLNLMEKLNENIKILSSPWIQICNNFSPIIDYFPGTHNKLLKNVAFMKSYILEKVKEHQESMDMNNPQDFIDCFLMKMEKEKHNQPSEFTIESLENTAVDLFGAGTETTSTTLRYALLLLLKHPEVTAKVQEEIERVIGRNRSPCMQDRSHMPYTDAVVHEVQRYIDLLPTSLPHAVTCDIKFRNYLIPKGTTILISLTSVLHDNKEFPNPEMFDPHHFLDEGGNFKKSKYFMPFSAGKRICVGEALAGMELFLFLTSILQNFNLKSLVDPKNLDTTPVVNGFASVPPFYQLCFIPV
smiles,measurement,setting,value
"Cc1cc(C)cc(OCC2CNC(=O)O2)c1 (centres unmarked) [metaxalone, 5-[(3,5-dimethylphenoxy)methyl]-2-oxazolidinone]",Inducer/Inhibitor,"CYP2A6; CYP isozyme 2A6, summary of studies",0
same,Percent of VC,"CYP2A6; Donor 1, Metaxalone 0.4 μM",100%
same,Specific Activity Individual,"CYP2A6; Donor 1, Metaxalone 0.4 μM",<2.68 pmol/min/million cells
same,Specific Activity Mean ± SD,"CYP2A6; Donor 1, Metaxalone 0.4 μM",<2.68 ± 0.000 pmol/min/million cells
same,Percent of VC,"CYP2A6; Donor 1, Metaxalone 4 μM",100%
same,Specific Activity Individual,"CYP2A6; Donor 1, Metaxalone 4 μM",<2.68 pmol/min/million cells
same,Specific Activity Mean ± SD,"CYP2A6; Donor 1, Metaxalone 4 μM",<2.68 ± 0.000 pmol/min/million cells
same,Percent of VC,"CYP2A6; Donor 1, Metaxalone 40 μM",100%
same,Specific Activity Individual,"CYP2A6; Donor 1, Metaxalone 40 μM",<2.68 pmol/min/million cells
same,Specific Activity Mean ± SD,"CYP2A6; Donor 1, Metaxalone 40 μM",<2.68 ± 0.000 pmol/min/million cells
same,Percent of VC,"CYP2A6; Donor 2, Metaxalone 0.4 μM",100%
same,Specific Activity Individual,"CYP2A6; Donor 2, Metaxalone 0.4 μM",<2.68 pmol/min/million cells
same,Specific Activity Mean ± SD,"CYP2A6; Donor 2, Metaxalone 0.4 μM",<2.68 ± 0.000 pmol/min/million cells
same,Percent of VC,"CYP2A6; Donor 2, Metaxalone 4 μM",100%
same,Specific Activity Individual,"CYP2A6; Donor 2, Metaxalone 4 μM",<2.68 pmol/min/million cells
same,Specific Activity Mean ± SD,"CYP2A6; Donor 2, Metaxalone 4 μM",<2.68 ± 0.000 pmol/min/million cells
same,Percent of VC,"CYP2A6; Donor 2, Metaxalone 40 μM",100%
same,Specific Activity Individual,"CYP2A6; Donor 2, Metaxalone 40 μM",<2.68 pmol/min/million cells
same,Specific Activity Mean ± SD,"CYP2A6; Donor 2, Metaxalone 40 μM",<2.68 ± 0.000 pmol/min/million cells
same,Percent of VC,"CYP2A6; Donor 3, Metaxalone 0.4 μM",100%
same,Specific Activity Individual,"CYP2A6; Donor 3, Metaxalone 0.4 μM",<2.68 pmol/min/million cells
same,Specific Activity Mean ± SD,"CYP2A6; Donor 3, Metaxalone 0.4 μM",<2.68 ± 0.000 pmol/min/million cells
same,Percent of VC,"CYP2A6; Donor 3, Metaxalone 4 μM",100%
same,Specific Activity Individual,"CYP2A6; Donor 3, Metaxalone 4 μM",<2.68 pmol/min/million cells
same,Specific Activity Mean ± SD,"CYP2A6; Donor 3, Metaxalone 4 μM",<2.68 ± 0.000 pmol/min/million cells
same,Percent of VC,"CYP2A6; Donor 3, Metaxalone 40 μM",100%
same,Specific Activity Individual,"CYP2A6; Donor 3, Metaxalone 40 μM",<2.68 pmol/min/million cells
same,Specific Activity Mean ± SD,"CYP2A6; Donor 3, Metaxalone 40 μM",<2.68 ± 0.000 pmol/min/million cells
same,effects on CYP activity,"CYP2A6; any of the tested concentrations (0.4, 4.0, 40 μM)",no significant effects
same,inhibition of CYP activity at a statistically significant level,CYP2C9; 0.3-100 μM metaxalone,no tested concentration of metaxalone inhibited activity
same,Inhibitor,"CYP2C9; CYP isozyme 2C9, summary of studies",0
same,Percent of VC,CYP2C9; metaxalone 0.3 μM,81.4%
same,Specific Activity Individual,CYP2C9; metaxalone 0.3 μM,36.3 pmol/min/mg protein and 35.8 pmol/min/mg protein and 36.2 pmol/min/mg protein
same,Specific Activity Mean ± SD,CYP2C9; metaxalone 0.3 μM,36.1 ± 0.283 pmol/min/mg protein
same,Percent of VC,CYP2C9; metaxalone 1 μM,81.6%
same,Specific Activity Individual,CYP2C9; metaxalone 1 μM,40.3 pmol/min/mg protein and 37.5 pmol/min/mg protein and 30.6 pmol/min/mg protein
same,Specific Activity Mean ± SD,CYP2C9; metaxalone 1 μM,36.2 ± 4.98 pmol/min/mg protein
same,Percent of VC,CYP2C9; metaxalone 3 μM,81.2%
same,Specific Activity Individual,CYP2C9; metaxalone 3 μM,34.8 pmol/min/mg protein and 34.0 pmol/min/mg protein and 39.1 pmol/min/mg protein
same,Specific Activity Mean ± SD,CYP2C9; metaxalone 3 μM,36.0 ± 2.75 pmol/min/mg protein
same,Percent of VC,CYP2C9; metaxalone 30 μM,91.0%
same,Specific Activity Individual,CYP2C9; metaxalone 30 μM,39.9 pmol/min/mg protein and 38.3 pmol/min/mg protein and 42.8 pmol/min/mg protein
same,Specific Activity Mean ± SD,CYP2C9; metaxalone 30 μM,40.3 ± 2.24 pmol/min/mg protein
same,Percent of VC,CYP2C9; metaxalone 100 μM,87.4%
same,Specific Activity Individual,CYP2C9; metaxalone 100 μM,43.4 pmol/min/mg protein and 36.6 pmol/min/mg protein and 36.3 pmol/min/mg protein
same,Specific Activity Mean ± SD,CYP2C9; metaxalone 100 μM,38.8 ± 4.00 pmol/min/mg protein
same,percent turnover,CYP3A4; [3],17.9%
same,% Turnover Mean,"CYP3A4; 0.75 μM metaxalone, 5 pmol cyp",17.9%
same,[metaxalone] Mean,"CYP3A4; 0.75 μM metaxalone, 5 pmol cyp",0.585 µM
same,% Turnover %,"CYP3A4; 0.75 μM metaxalone, 5 pmol cyp",20.3% and 18.3% and 15.0%
same,[metaxalone],"CYP3A4; 0.75 μM metaxalone, 5 pmol cyp",0.567 µM and 0.582 µM and 0.605 µM
same,percent turnover,CYP3A4; [4],34.0%
same,% Turnover Mean,CYP3A4; [5],34.0%
same,[metaxalone] Mean,CYP3A4; [5],0.470 µM
same,% Turnover %,CYP3A4; [5],31.7% and 39.0% and 31.4%
same,[metaxalone],CYP3A4; [5],0.486 µM and 0.434 µM and 0.488 µM
same,percent turnover,CYP3A4; [6],16.6%
same,% Turnover Mean,"CYP3A4; 7.5 μM metaxalone, 5 pmol cyp",16.6%
same,[metaxalone] Mean,"CYP3A4; 7.5 μM metaxalone, 5 pmol cyp",6.43 µM
same,% Turnover %,"CYP3A4; 7.5 μM metaxalone, 5 pmol cyp",17.5% and 16.7% and 15.7%
same,[metaxalone],"CYP3A4; 7.5 μM metaxalone, 5 pmol cyp",6.36 µM and 6.43 µM and 6.50 µM
same,percent turnover,CYP3A4; [7],32.4%
same,% Turnover Mean,"CYP3A4; 7.5 μM metaxalone, 20 pmol cyp",32.4%
same,[metaxalone] Mean,"CYP3A4; 7.5 μM metaxalone, 20 pmol cyp",5.22 µM
same,% Turnover %,"CYP3A4; 7.5 μM metaxalone, 20 pmol cyp",34.3% and 32.8% and 30.0%
same,[metaxalone],"CYP3A4; 7.5 μM metaxalone, 20 pmol cyp",5.07 µM and 5.18 µM and 5.40 µM
same,Substrate,"CYP3A4; CYP isozyme 3A4, summary of studies",+
same,percent turnover,CYP2D6 [1]; [3],9.9%
same,% Turnover Mean,"CYP2D6 [1]; 0.75 μM metaxalone, 5 pmol cyp",9.9%
same,[metaxalone] Mean,"CYP2D6 [1]; 0.75 μM metaxalone, 5 pmol cyp",0.642 µM
same,% Turnover %,"CYP2D6 [1]; 0.75 μM metaxalone, 5 pmol cyp",8.8% and 11.6% and 9.1%
same,[metaxalone],"CYP2D6 [1]; 0.75 μM metaxalone, 5 pmol cyp",0.649 µM and 0.629 µM and 0.647 µM
same,percent turnover,CYP2D6 [1]; [4],19.5%
same,% Turnover Mean,CYP2D6 [1]; [5],19.5%
same,[metaxalone] Mean,CYP2D6 [1]; [5],0.573 µM
same,% Turnover %,CYP2D6 [1]; [5],23.3% and 16.7% and 18.5%
same,[metaxalone],CYP2D6 [1]; [5],0.546 µM and 0.593 µM and 0.581 µM
same,percent turnover,CYP2D6 [1]; [6],12.6%
same,% Turnover Mean,"CYP2D6 [1]; 7.5 μM metaxalone, 5 pmol cyp",12.6%
same,[metaxalone] Mean,"CYP2D6 [1]; 7.5 μM metaxalone, 5 pmol cyp",6.74 µM
same,% Turnover %,"CYP2D6 [1]; 7.5 μM metaxalone, 5 pmol cyp",10.7% and 12.5% and 14.5%
same,[metaxalone],"CYP2D6 [1]; 7.5 μM metaxalone, 5 pmol cyp",6.89 µM and 6.75 µM and 6.60 µM
same,percent turnover,CYP2D6 [1]; [7],24.9%
same,% Turnover Mean,"CYP2D6 [1]; 7.5 μM metaxalone, 20 pmol cyp",24.9%
same,[metaxalone] Mean,"CYP2D6 [1]; 7.5 μM metaxalone, 20 pmol cyp",5.79 µM
same,% Turnover %,"CYP2D6 [1]; 7.5 μM metaxalone, 20 pmol cyp",23.9% and 23.5% and 27.3%
same,[metaxalone],"CYP2D6 [1]; 7.5 μM metaxalone, 20 pmol cyp",5.87 µM and 5.90 µM and 5.61 µM
same,Substrate,"CYP2D6 [1]; CYP isozyme 2D6, summary of studies",+
same,Inducer/Inhibitor,CYP2D6 [2],−
same,Percent of VC,"CYP2D6 [2]; Donor 3, Metaxalone 0.4 μM",98.8%
same,Percent of VC,"CYP2D6 [2]; Donor 3, Metaxalone 4 μM",89.8%
same,Specific Activity Mean ± SD,"CYP2D6 [2]; Donor 3, Metaxalone 4 μM",0.533 ± 0.0146 pmol/min/million cells
same,CYP2D6 activity,CYP2D6 [2]; hepatocytes,below the lower limit of quantitation
same,Percent of VC,"CYP2D6 [2]; human, 48 h, 4 μM",100%
same,effect on CYP2D6 activity,"CYP2D6 [2]; human, hepatocytes, 48 h, 40 μM",significantly reduced CYP2D6 activity
